Experimental data taken from BigSolDB 2.1.

O=[N+]([O-])c1ccc(Oc2ccc([N+](=O)[O-])cc2)cc1
solubility (mole fraction)
Conditions | 283.15 K | 288.15 K | 293.15 K | 298.15 K | 303.15 K | 308.15 K | 313.15 K | 318.15 K | 323.15 K
in 1,4-dioxane | 0.026 | 0.0325 | 0.0409 | 0.0489 | 0.0575 | 0.0674 | 0.08 | 0.0922 | 0.11
in 1-methoxy-2-propanol | 0.00539 | 0.00657 | 0.0071 | 0.00864 | 0.00979 | 0.0114 | 0.0137 | 0.0162 | 0.0198
in 2-methoxyethanol | 0.00657 | 0.00753 | 0.00823 | 0.0103 | 0.0116 | 0.0131 | 0.0158 | 0.0182 | 0.022
in DMAc | 0.0802 | 0.0866 | 0.0913 | 0.103 | 0.115 | 0.126 | 0.144 | 0.164 | 0.184
in DMF | 0.0524 | 0.0612 | 0.0663 | 0.077 | 0.0883 | 0.0933 | 0.111 | 0.126 | 0.152
in acetic acid | 0.00292 | 0.00347 | 0.00366 | 0.00469 | 0.00525 | 0.00612 | 0.0072 | 0.00835 | 0.0103
in acetone | 0.0155 | 0.0173 | 0.0197 | 0.0246 | 0.0281 | 0.0333 | 0.0401 | 0.0484 | 0.0571
in acetonitrile | 0.00446 | 0.00587 | 0.00682 | 0.00926 | 0.0104 | 0.0129 | 0.0158 | 0.0195 | 0.0241
in anisole | 0.0243 | 0.0293 | 0.0339 | 0.0395 | 0.0444 | 0.0547 | 0.0647 | 0.0746 | 0.0893
in ethanol | 0.00035 | 0.000369 | 0.000418 | 0.000531 | 0.000631 | 0.000807 | 0.00102 | 0.00124 | 0.0015
in ethyl acetate | 0.0133 | 0.015 | 0.0172 | 0.0206 | 0.0228 | 0.0266 | 0.0316 | 0.036 | 0.0422
in isopropanol | 0.000139 | 0.000199 | 0.000222 | 0.000322 | 0.000394 | 0.000538 | 0.000779 | 0.000996 | 0.00136
in methanol | 0.000259 | 0.000329 | 0.000376 | 0.000525 | 0.000637 | 0.000804 | 0.00095 | 0.00115 | 0.00145
in n-butanol | 0.000203 | 0.000337 | 0.00049 | 0.000661 | 0.000826 | 0.00111 | 0.00144 | 0.00183 | 0.00241
